Reference: PMC4009402, “Evaluation of a biohybrid photoelectrochemical cell employing the purple bacterial reaction centre as a biosensor for herbicides” (Biosensors & Bioelectronics, 2014)
Values joined by “and” are separate entries in the source; they are usually repeats but may differ in a detail not shown here. Equal values may be shown once. Read-outs that look alike come from different tables or passages of the source.

Tests used:
[1] = target: T1, Rba. sphaeroides reaction centre (QB site) (Cereibacter sphaeroides, UniProt P0C0Y8); assay: Inhibition of photocurrent generation in photoelectrochemical cell with reaction centres adhered to a gold electrode; format: biochemical, Rhodobacter sphaeroides; conditions: for inhibition of the QB site / photocurrent (in words): present study, detergent-free buffer; for LOD (IC5): calculated from IC50 and Hill coefficient, 5% change in current
T1 construct: made in house; host or cells: Rba. sphaeroides strain DD13 carrying plasmid pvLMt (written pvLMtX)
Method: To adhere reaction centres the cleaned gold electrode was immersed in 25 µL of a 1 mg mL^−1 (approximately 10 µM) solution of purified reaction centres in 20 mM Tris (pH 8.0)/0.1% LDAO for 1 h at 4 °C in dark. Unbound reaction centres were removed by dipping the electrode in ice-cold 20 mM Tris (pH 8.0) three times. The coated gold electrode was assembled into a glass-bottomed cell along with a Pt counter electrode (Radiometer Analytical), and an Ag/AgCl reference electrode (Radiometer Analytical). The cell was filled with 1 ml of 20 mM Tris (pH 8.0) containing 20 µM horse heart cyt c and 30 µM UQ0 (both from Sigma-Aldrich) and placed above a shutter-controlled 1.5 W 880 nm LED light source (Roithner LaserTechnik), resulting in an illumination intensity of 46 mW cm^−2 at the working electrode. A potential of −100 mV vs SCE was applied and photocurrents measured by chronoamperometry using the Autolab PGSTAT128N potentiostat (Metrohm) controlled by the PC running Autolab Nova 1.4 software (Metrohm).
The cell was incubated for 1 min before measurement of a 30 s photocurrent. All herbicides and inhibitors were purchased from Sigma-Aldrich, and their structures are shown in Supplementary Fig. 2.
For titrations, the photocurrent from a freshly prepared cell was measured for 30 s before and after the addition of increasing concentrations of atrazine, terbutryn or stigmatellin prepared in 20 mM Tris (pH 8.0)/20 µM cyt c/30 µM UQ0. After each addition the cell was equilibrated for 60 s before measuring the photocurrent, which was sufficient to allow stabilisation of the applied current required to maintain a potential of −100 mV vs SCE. Maximal photocurrents were plotted as a function of inhibitor concentration and fitted with a logistic function to determine the IC50 and IC5 (see text). These IC50 values were used to estimate Ki using the Cheng–Prusoff equation (see text).
To quantify the sensitivity of photocurrent generation to atrazine, terbutryn and stigmatellin the maximal photocurrent after a standard period of 30 s was recorded as a function of herbicide or inhibitor concentration. The titration data, expressed as the percentage of the maximum current in the absence of the herbicide/inhibitor, were fitted to a logistic function (Eq. (1)) to determine the IC50.(1) Y=Min+Max−Min/1+([Inhibitor]/IC50)^−HillCoefficient where Max and Min are maximal and minimal photocurrents, respectively. […] Based on this, the LOD can be represented by an IC5 value that can be calculated from the parameters of the IC50 fit (Eq. (2)).
To compare the sensitivity of our photochemical cell device to previous studies employing Rba. sphaeroides reaction centres, the IC50 values were converted to values for the binding affinity of the inhibitor (Ki) using the Cheng–Prusoff equation (Eq. (3)) ([Cheng and Prusoff, 1973])(3) Ki=IC50/1+([S]/Km) where [S] is the substrate concentration and Km is the measured Michaelis constant for UQ0 (see above).

[2] = target: QB site in the Rba. sphaeroides reaction centre; parameters: method as in Stein et al., 1984; conditions: 1 μM reaction centres, 10 mM Tris (pH 8.0), 100 mM NaCl, 0.06% TX-100, 20 μM UQ10; ref Stein et al., 1984; cited from earlier work
[3] = target: T1, Rba. sphaeroides reaction centre (QB site); assay: Kinetics of charge recombination in photo-oxidised reaction centres in solution (absorbance at 865 nm); format: biochemical, Rhodobacter sphaeroides; conditions: for effect on recombination rate (in words): 500 µM agent; for τ1 / τ2 / A1 / A2: 500 µM inhibitor; for τ1 / τ2: 13.2 µM reaction centres, 30 µM UQ0, ± standard error; for A1: amplitude of τ1 component; for A2: amplitude of τ2 component
Method: Analysis of the effects of herbicides or inhibitors on the kinetics of charge recombination was performed using a Cary60 spectrophotometer connected to an external 1 cm cuvette holder (Ocean Optics) via a fibre-optic coupler. A white light pulse of 50 ms duration was applied to the sample cuvette at 90° to the pulsed measuring beam by an HL-2000-FHSA white light source with a fast shutter (Ocean Optics) delivering approximately 25 W m^−2 illumination at the cuvette surface. The actinic pulse was triggered by a TGP110 pulse generator (Thurlby Thandur Instruments). […] Test samples were loaded into to a 3×3 mm fluorescence cuvette (Hellma) aligned to the measuring and excitation pulses and absorbance at 865 nm was measured for 20 s after delivery of the light pulse, with a further period of at least 60 s to allow full dark adaptation of the reaction centres before re-excitation. A set of eight kinetic traces were recorded for each sample, averaged, and fitted using a single or double exponential function in Origin 8 (OriginLab).
To ensure this pattern of results was not specific to the conditions within the photoelectrochemical cell, the ability of these inhibitors to replace ubiquinone at the QB site was also tested by measuring the rate of recombination from QA and QB to the primary donor bacteriochlorophyll (P) after excitation with a pulse of white light (see Section 2). As outlined in Section 1, recombination of P^+QA^− or P^+QB^− occurs with lifetimes of ~100 ms and ~1 s, respectively. As the QB quinone is partially lost during purification of reaction centres, assays were conducted in the presence of 30 µM UQ0 to reconstitute QB, the reaction centre concentration being 13.2 µM.

[4] = tested on: Blc. viridis reaction centre; parameters: method as in Sinning et al., 1989; conditions: ref Sinning et al., 1989; cited from earlier work
[5] = tested on: Blc. viridis reaction centres (tyrosine to phenylalanine mutant near QB pocket); parameters: method as in Sinning et al., 1989; conditions: ref Sinning et al., 1989, cited from earlier work
[6] = target: T2, Rba. sphaeroides reaction centre quinone reductase (QB) site (Cereibacter sphaeroides, UniProt P0C0Y8); assay: Determination of the Km(apparent) for UQ0 from photocurrent density; format: biochemical, Rhodobacter sphaeroides; conditions: detergent-free buffer, Michaelis–Menten fit
T2 construct: made in house; host or cells: Rba. sphaeroides strain DD13 carrying plasmid pvLMt (written pvLMtX)
Method: Photovoltaic cells were assembled as described above but with the omission of UQ0. Photocurrents of 30 s duration were measured in the absence of UQ0 and after the addition of increasing amounts of UQ0. Maximal currents from three titrations were averaged, plotted as a function of UQ0 concentration then fitted with the Michaelis–Menten equation using Origin 8.0 (OriginLab).
To optimise the concentration of the substrate for the reaction centre quinone reductase (QB) site in the cell the Km^(apparent) for UQ0 was determined by measuring the maximum photocurrent density during a 30 s period of illumination as a function of increasing concentrations of UQ0. A concentration-dependent increase in the photocurrent amplitude was obtained, which was fitted with the Michaelis–Menten equation (Supplementary Fig. 3). […] This Km^(apparent) for UQ0 is, to our knowledge, the strongest reported to date. […] As the present assay was conducted in detergent-free buffer, the stronger Km^(apparent) obtained is consistent with this trend.

reaction centre QB site = target: reaction centre QB site; parameters: method as in earlier work; conditions: ref McComb et al., 1990, Paddock et al., 1988, Gerencsér and Maróti, 2008, cited from earlier work
spinach thylakoids = tested on: spinach thylakoids; parameters: method as in Touloupakis et al., 2005; conditions: albumin glutaraldehyde matrix; ref Touloupakis et al., 2005; cited from earlier work
PSII = conditions: cited from earlier work
[7] = mutant vs normal reaction centre
[8] = PSII complexes in glutaraldehyde–BSA matrix on graphite electrode, ref Koblížek et al., 2002
[9] = PSII reaction centres or BBY particles on screen printed gold electrodes, ref Bhalla and Zazubovich, 2011

| SMILES | photocurrent remaining ([1]; 500 µM agent) | inhibition of the QB site / photocurrent (in words) [1] | Kd [2] [µM] | effect on recombination rate (in words) [3] | τ1 [3] [s] | τ2 [3] [s] | A1 [3] [%] | A2 [3] [%] | IC50 [1] [nM] | Ki [1] [nM] | photocurrent remaining ([1]; 100 µM agent) | LOD (IC5) [1] [nM] | other results |
| --- | --- | --- | --- | --- | --- | --- | --- | --- | --- | --- | --- | --- | --- |
| N#Cc1cc(Br)c(O)c(Br)c1 [bromoxynil] | greater than 80% | ineffective | 30 | unaffected | 0.038 ± 0.009 | 1.14 ± 0.04 | 36.1 ± 12.4 | 63.9 ± 2.2 | – | – | – | – | – |
| CN(C)C(=O)Nc1ccc(Cl)c(Cl)c1 [DCMU, 3-(3,4-dichlorophenyl)-1,1-dimethylurea] | – | – | > 800 | unaffected | 0.179 ± 0.012 | 1.18 ± 0.04 | 51.7 ± 3.7 | 48.3 ± 3.7 | – | – | – | – | inhibitor grouping (in words) [4]: very weak inhibitors; increase in affinity in mutant ([5]; single tyrosine to phenylalanine change): at least four orders of magnitude |
| COc1cc(CNC(=O)CCCC/C=C/C(C)C)ccc1O [capsaicin] | greater than 80% | – | – | unaffected | 0.152 ± 0.011 | 1.19 ± 0.03 | 41.0 ± 3.8 | 59.0 ± 2.2 | – | – | – | – | – |
| COC1=C(OC)C(=O)C(C)=CC1=O [UQ0, ubiquinone-0] | – | – | – | – | – | – | – | – | – | – | – | – | Km [6]: 42 ± 2 µM; Kd (reaction centre QB site; 0.0025% LDAO): 175 µM and 90 µM; Kd (reaction centre QB site; 0.06% LDAO): 480 µM; Kd (reaction centre QB site; 0.1% LDAO): 600 µM |
| N#Cc1cc(I)c(O)c(I)c1 [ioxynil] | – | – | – | – | – | – | – | – | – | – | – | – | inhibitor grouping (in words) [4]: very weak inhibitors; increase in sensitivity to inhibitor in mutant [5, 7]: 100 fold |
| C/C=C(C)/C=C/C=C/[C@H](OC)[C@@H](C)[C@@H](OC)[C@@H](C)CCc1oc2c(O)c(OC)cc(OC)c2c(=O)c1C [stigmatellin] | – | strong inhibition | – | accelerated significantly | 0.095 ± 0.003 | – | 100 | – | 280 ± 60 | 165 | less than 10% | 8.3 | LOD (IC5) ([1]; listed as Stigmatellin): 10 nM |
| CC(C)N1C(=O)c2ccccc2NS1(=O)=O [bentazon] | greater than 80% | weak inhibition | – | unaffected | 0.129 ± 0.015 | 1.09 ± 0.03 | 39.0 ± 5.8 | 61.0 ± 3.0 | – | – | – | – | – |
| CCNc1nc(Cl)nc(NC(C)C)n1 [atrazine, N^2-ethyl-6-chloro-N^4-isopropyl-1,3,5-triazine-2,4-diamine] | – | strong inhibition | 120 | accelerated significantly | 0.212 ± 0.004 | – | 100 | – | 2100 ± 100 | 1200 | less than 10% | ~50 | LOD (IC5) ([1]; listed as Atrazine): 49 nM; IC50 (spinach thylakoids): 100 nM; LOD (spinach thylakoids): 12.7 nM; IC50 (PSII; [8]): 90 nM; LOD (PSII; [8]): 2 nM; IC50 (PSII; PSII on screen printed Pt electrode in glutaraldehyde–BSA–glycerol matrix, ref Masojídek et al., 2011): 890 nM; IC50 (PSII; [9]): 49 nM; LOD (PSII; [9]): 1.15 nM |
| CCNc1nc(NC(C)(C)C)nc(SC)n1 [terbutryn] | – | strong inhibition | 3 | accelerated significantly | 0.152 ± 0.004 | – | 100 | – | 208 ± 10 | 123 | less than 10% | 8.3 | decrease in sensitivity to inhibitor in mutant [5, 7]: 660 fold |
